The term IC50 denotes the concentration needed to halve the response being measured. A lower IC50 goes with greater potency.

The target in this assay is T1, SYK kinase (Homo sapiens, UniProt P43405).
T1 construct: purchased Invitrogen, Carlsbad
Nature of the assay: SYK assay (OMNIA Kinase Assay, Invitrogen). The assay is classed as biochemical. Particulars: SYK Activities; 1 mM ATP, 10 μM Omnia Peptide Substrate Tyr 7, 30° C. Summed up: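 Continuous-read fluorescence kinase assay: SOX-labelled Tyr 7 peptide (10 μM) with 1 mM ATP and 0.2 mM DTT, 30° C, reaction started by adding SYK. Fluorescence (ex 360/em 485 nm) read every 30 s for 30 min. IC50 from sigmoidal fit of reaction velocity versus inhibitor concentration.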
`Nc1cccc(-c2nc(Nc3cnn(C4CCOCC4)c3)c3[nH]ncc3n2)c1` [Example 530, 5-(3-aminophenyl)-N-(1-(tetrahydro-2H-pyran-4-yl)-1H-pyrazol-4-yl)-1H-pyrazolo[4,3-d]pyrimidin-7-amine] returned an IC50 of 10 to 100 nM.

In turn, `Nc1ccccc1-c1nc(Nc2cnn(C3CCOCC3)c2)c2n[nH]cc2n1` [Example 531, 5-(2-aminophenyl)-N-(1-(tetrahydro-2H-pyran-4-yl)-1H-pyrazol-4-yl)-2H-pyrazolo[4,3-d]pyrimidin-7-amine] showed an IC50 of 100 to 1000 nM. `CN1CCC(n2cc(Nc3nc(-c4nccs4)nc4cn[nH]c34)cn2)CC1` [Example 535, N-(1-(1-methylpiperidin-4-yl)-1H-pyrazol-4-yl)-5-(thiazol-2-yl)-1H-pyrazolo[4,3-d]pyrimidin-7-amine] registered an IC50 of 10 to 100 nM.

Turning to `CN1CCN(c2ccc(Nc3nc(-c4ccc5cn[nH]c5c4)nc4cn[nH]c34)cc2CO)CC1` [Example 536, (5-((5-(1H-indazol-6-yl)-1H-pyrazolo[4,3-d]pyrimidin-7-yl)amino)-2-(4-methylpiperazin-1-yl)phenyl)methanol], the IC50 is less than 10 nM.

`Fc1cccc(F)c1-c1nc(Nc2ccc3c(c2)NCCO3)c2[nH]ncc2n1` [Example 537, N-(5-(2,6-difluorophenyl)-1H-pyrazolo[4,3-d]pyrimidin-7-yl)-3,4-dihydro-2H-benzo[b][1,4]oxazin-6-amine] returned an IC50 of 10 to 100 nM.

`CC(=O)Nc1cc(Nc2nc(-c3c(F)cccc3F)nc3cn[nH]c23)ccc1N1CCN(C(C)=O)CC1` [Example 538, N-(2-(4-acetylpiperazin-1-yl)-5-((5-(2,6-difluorophenyl)-1H-pyrazolo[4,3-d]pyrimidin-7-yl)amino)phenyl)acetamide] returned a 50% inhibitory concentration (IC50) of 100 to 1000 nM.

Molecule `CN1CCN(c2ccc(Nc3nc(-c4c(F)cccc4F)nc4cn[nH]c34)cc2Cl)CC1` [Example 539, N-(3-chloro-4-(4-methylpiperazin-1-yl)phenyl)-5-(2,6-difluorophenyl)-1H-pyrazolo[4,3-d]pyrimidin-7-amine] came in with an IC50 of 10 to 100 nM. For the molecule `Oc1c(Cl)cc(Nc2nc(-c3c(F)cccc3F)nc3cn[nH]c23)cc1Cl` [Example 540, 2,6-dichloro-4-((5-(2,6-difluorophenyl)-1H-pyrazolo[4,3-d]pyrimidin-7-yl)amino)phenol], the IC50 was in the range of 10 to 100 nM.

The values above are taken from patent US9637491B2, “Pyrazolo[4,3-D]pyrimidines as kinase inhibitors” (Origenis GmbH, priority 2012, dated 2017).
